# pEC50: −log10 of the molar value.
# System: CHIKV 181/clone25
# Assay: CHIKV cytopathic effect (CPE) protection assay in Vero cells
# Type: cell-based
# Details: Chikungunya virus; CHIKV 181/clone25, Vero cells, MOI=0.01, 48 hrs, protection from CPE (crystal violet, absorbance 595nm)
row,SMILES,pEC50
1,"O=C(CC1Sc2ncccc2NC1=O)NCC1CCCCC1 (stereo not shown) [Example 2, N-(cyclohexylmethyl)-2-(2-oxo-2,3-dihydro-1H-pyrido[2,3-b][1,4]thiazin-3-yl)acetamide]",> 5.00
2,"COC(=O)CC1Sc2ncccc2NC1=O (stereo not shown) [Example 3, methyl 2-(2-oxo-2,3-dihydro-1H-pyrido[2,3-b][1,4]thiazin-3-yl)acetate]",< 4.00
3,"O=C(CC1Sc2ncccc2NC1=O)NCC1CCC(O)CC1 (stereo not shown) [Example 4, N-((4-hydroxycyclohexyl)methyl)-2-(2-oxo-2,3-dihydro-1H-pyrido[2,3-b][1,4]thiazin-3-yl)acetamide]",< 4.00
4,"O=C(O)CC1Sc2ncccc2NC1=O (stereo not shown) [Example 5, 2-(2-oxo-2,3-dihydro-1H-pyrido[2,3-b][1,4]thiazin-3-yl)acetic acid]",< 4.00
5,"CN1C(=O)[C@@H](CC(=O)NCC2CCCCC2)Sc2ncccc21 [Example 6, (R)-N-(cyclohexylmethyl)-2-(1-methyl-2-oxo-2,3-dihydro-1H-pyrido[2,3-b][1,4]thiazin-3-yl)acetamide]",> 5.00
6,"CN1C(=O)[C@H](CC(=O)NCC2CCCCC2)Sc2ncccc21 [Example 7, (S)-N-(cyclohexylmethyl)-2-(1-methyl-2-oxo-2,3-dihydro-1H-pyrido[2,3-b][1,4]thiazin-3-yl)acetamide]",4.30 to 5.00
7,"CN1CCN(C(=O)CC2Sc3ncccc3N(C)C2=O)CC1 (stereo not shown) [Example 8, 1-methyl-3-(2-(4-methylpiperazin-1-yl)-2-oxoethyl)-1H-pyrido[2,3-b][1,4]thiazin-2(3H)-one]",< 4.00
8,"CN1C(=O)C(CC(=O)NCC2CCCO2)Sc2ncccc21 (stereo not shown) [Example 9, 2-(1-methyl-2-oxo-2,3-dihydro-1H-pyrido[2,3-b][1,4]thiazin-3-yl)-N-((tetrahydrofuran-2-yl)methyl)acetamide]",< 4.00
9,"CC(C)NC(=O)CC1Sc2ncccc2N(C)C1=O (stereo not shown) [Example 10, N-isopropyl-2-(1-methyl-2-oxo-2,3-dihydro-1H-pyrido[2,3-b][1,4]thiazin-3-yl)acetamide]",< 4.00
10,"CCN1CCN(C(=O)CC2Sc3ncccc3N(C)C2=O)CC1 (stereo not shown) [Example 11, 3-(2-(4-ethylpiperazin-1-yl)-2-oxoethyl)-1-methyl-1H-pyrido[2,3-b][1,4]thiazin-2(3H)-one]",< 4.00
11,"CN1C(=O)C(CC(=O)NCc2ccccn2)Sc2ncccc21 (stereo not shown) [Example 12, 2-(1-methyl-2-oxo-2,3-dihydro-1H-pyrido[2,3-b][1,4]thiazin-3-yl)-N-(pyridin-2-ylmethyl)acetamide]",< 4.00
12,"CN1C(=O)C(CC(=O)NCc2cccnc2)Sc2ncccc21 (stereo not shown) [Example 13, 2-(1-methyl-2-oxo-2,3-dihydro-1H-pyrido[2,3-b][1,4]thiazin-3-yl)-N-(pyridin-3-ylmethyl)acetamide]",< 4.00
13,"CN1C(=O)C(CC(=O)NCc2ccncc2)Sc2ncccc21 (stereo not shown) [Example 14, 2-(1-methyl-2-oxo-2,3-dihydro-1H-pyrido[2,3-b][1,4]thiazin-3-yl)-N-(pyridin-4-ylmethyl)acetamide]",< 4.00
14,"CN1C(=O)C(CC(=O)NCc2ccccc2)Sc2ncccc21 (stereo not shown) [Example 15, N-benzyl-2-(1-methyl-2-oxo-2,3-dihydro-1H-pyrido[2,3-b][1,4]thiazin-3-yl)acetamide]",4.30 to 5.00
15,"CCC(C)NC(=O)CC1Sc2ncccc2N(C)C1=O (stereo not shown) [Example 16, N-(sec-butyl)-2-(1-methyl-2-oxo-2,3-dihydro-1H-pyrido[2,3-b][1,4]thiazin-3-y)acetamide]",< 4.00
16,"CC(NC(=O)CC1Sc2ncccc2N(C)C1=O)c1ccccc1 (stereo not shown) [Example 17, 2-(1-methyl-2-oxo-2,3-dihydro-1H-pyrido[2,3-b][1,4]thiazin-3-yl)-N-(1-phenylethyl)acetamide]",< 4.00
17,"COCCNC(=O)CC1Sc2ncccc2N(C)C1=O (stereo not shown) [Example 18, N-(2-methoxyethyl)-2-(1-methyl-2-oxo-2,3-dihydro-1H-pyrido[2,3-b][1,4]thiazin-3-yl)acetamide]",< 4.00
18,"CN1C(=O)C(CC(=O)NC2CCCCC2)Sc2ncccc21 (stereo not shown) [Example 19, N-cyclohexyl-2-(1-methyl-2-oxo-2,3-dihydro-1H-pyrido[2,3-b][1,4]thiazin-3-yl)acetamide]",< 4.00
19,"CN1C(=O)C(CC(=O)NC2=CCCCC2)Sc2ncccc21 (stereo not shown) [Example 20, N-(cyclohex-1-en-1-yl)-2-(1-methyl-2-oxo-2,3-dihydro-1H-pyrido[2,3-b][1,4]thiazin-3-yl)acetamide]",4.30 to 5.00
20,"COCCCNC(=O)CC1Sc2ncccc2N(C)C1=O (stereo not shown) [Example 21, N-(3-methoxypropyl)-2-(1-methyl-2-oxo-2,3-dihydro-1H-pyrido[2,3-b][1,4]thiazin-3-yl)acetamide]",< 4.00
21,"CN1C(=O)C(CC(=O)NC2CCCC2)Sc2ncccc21 (stereo not shown) [Example 22, N-cyclopentyl-2-(1-methyl-2-oxo-2,3-dihydro-1H-pyrido[2,3-b][1,4]thiazin-3-yl)acetamide]",4.00 to 4.30
22,"CN1C(=O)C(CC(=O)NC2CCCCCC2)Sc2ncccc21 (stereo not shown) [Example 23, N-cycloheptyl-2-(1-methyl-2-oxo-2,3-dihydro-1H-pyrido[2,3-b][1,4]thiazin-3-yl)acetamide]",4.30 to 5.00

row,SMILES,pEC50
1,"CN1C(=O)C(CC(=O)NCc2ccc(F)cc2)Sc2ncccc21 (stereo not shown) [Example 24, N-(4-fluorobenzyl)-2-(1-methyl-2-oxo-2,3-dihydro-1H-pyrido[2,3-b][1,4]thiazin-3-yl)acetamide]",> 5.00
2,"CN1C(=O)C(CC(=O)NCc2ccccc2C(F)(F)F)Sc2ncccc21 (stereo not shown) [Example 25, 2-(1-methyl-2-oxo-2,3-dihydro-1H-pyrido[2,3-b][1,4]thiazin-3-yl)-N-(2-(trifluoromethyl)benzyl)aceta-mide]",< 4.00
3,"Cc1ccc(CNC(=O)CC2Sc3ncccc3N(C)C2=O)cc1 (stereo not shown) [Example 26, 2-(1-methyl-2-oxo-2,3-dihydro-1H-pyrido[2,3-b][1,4]thiazin-3-yl)-N-(4-methylbenzyl)acetamide]",4.30 to 5.00
4,"CN(Cc1ccccc1)C(=O)CC1Sc2ncccc2N(C)C1=O (stereo not shown) [Example 27, N-benzyl-N-methyl-2-(1-methyl-2-oxo-2,3-dihydro-1H-pyrido[2,3-b][1,4]thiazin-3-yl)acetamide]",< 4.00
5,"CN(C)CCCNC(=O)CC1Sc2ncccc2N(C)C1=O (stereo not shown) [Example 28, N-(3-(dimethylamino)propyl)-2-(1-methyl-2-oxo-2,3-dihydro-1H-pyrido[2,3-b][1,4]thiazin-3-yl)acetamide]",< 4.00
6,"CC(C)CCNC(=O)CC1Sc2ncccc2N(C)C1=O (stereo not shown) [Example 29, N-isopentyl-2-(1-methyl-2-oxo-2,3-dihydro-1H-pyrido[2,3-b][1,4]thiazin-3-yl)acetamide]",> 5.00
7,"CN1C(=O)C(CC(=O)NCc2ccco2)Sc2ncccc21 (stereo not shown) [Example 30, N-(furan-2-ylmethyl)-2-(1-methyl-2-oxo-2,3-dihydro-1H-pyrido[2,3-b][1,4]thiazin-3-yl)acetamide]",< 4.00
8,"CN1C(=O)C(CC(=O)N2CCCCCC2)Sc2ncccc21 (stereo not shown) [Example 31, 3-(2-(azepan-1-yl)-2-oxoethyl)-1-methyl-1H-pyrido[2,3-b][1,4]thiazin-2(3H)-one]",< 4.00
9,"CC(C)N1CCN(C(=O)CC2Sc3ncccc3N(C)C2=O)CC1 (stereo not shown) [Example 32, 3-(2-(4-isopropylpiperazin-1-yl)-2-oxoethyl)-1-methyl-1H-pyrido[2,3-b][1,4]thiazin-2(3H)-one]",< 4.00
10,"Cc1ccc(CNC(=O)CC2Sc3ncccc3N(C)C2=O)o1 (stereo not shown) [Example 33, 2-(1-methyl-2-oxo-2,3-dihydro-1H-pyrido[2,3-b][1,4]thiazin-3-yl)-N-((5-methylfuran-2-yl)methyl)acetamide]",< 4.00
11,"CCCN1CCN(C(=O)CC2Sc3ncccc3N(C)C2=O)CC1 (stereo not shown) [Example 34, 1-methyl-3-(2-oxo-2-(4-propylpiperazin-1-yl)ethyl)-1H-pyrido[2,3-b][1,4]thiazin-2(3H)-one]",< 4.00
12,"CC1CCCN(C(=O)CC2Sc3ncccc3N(C)C2=O)C1 (stereo not shown) [Example 35, 1-methyl-3-(2-(3-methylpiperidin-1-yl)-2-oxoethyl)-1H-pyrido[2,3-b][1,4]thiazin-2(3H)-one]",< 4.00
13,"CC1CCN(C(=O)CC2Sc3ncccc3N(C)C2=O)CC1 (stereo not shown) [Example 36, 1-methyl-3-(2-(4-methylpiperidin-1-yl)-2-oxoethyl)-1H-pyrido[2,3-b][1,4]thiazin-2(3H)-one]",< 4.00
14,"CN1C(=O)C(CC(=O)N2CCCC2)Sc2ncccc21 (stereo not shown) [Example 37, 1-methyl-3-(2-oxo-2-(pyrrolidin-1-yl)ethyl)-1H-pyrido[2,3-b][1,4]thiazin-2(3H)-one]",< 4.00
15,"CN1C(=O)C(CC(=O)N2CCCCC2)Sc2ncccc21 (stereo not shown) [Example 38, 1-methyl-3-(2-oxo-2-(piperidin-1-yl)ethyl)-1H-pyrido[2,3-b][1,4]thiazin-2(3H)-one]",< 4.00
16,"CC(NC(=O)CC1Sc2ncccc2N(C)C1=O)c1cccnc1 (stereo not shown) [Example 39, 2-(1-methyl-2-oxo-2,3-dihydro-1H-pyrido[2,3-b][1,4]thiazin-3-yl)-N-(1-(pyridin-3-yl)ethyl)acetamide]",< 4.00
17,"CC1CCCCN1CCNC(=O)CC1Sc2ncccc2N(C)C1=O (stereo not shown) [Example 40, 2-(1-methyl-2-oxo-2,3-dihydro-1H-pyrido[2,3-b][1,4]thiazin-3-yl)-N-(2-(2-methylpiperidin-1-yl)ethyl)acetamide]",< 4.00
18,"CN1C(=O)C(CC(=O)NCc2cccs2)Sc2ncccc21 (stereo not shown) [Example 41, 2-(1-methyl-2-oxo-2,3-dihydro-1H-pyrido[2,3-b][1,4]thiazin-3-yl)-N-(thiophen-2-ylmethyl)acetamide]",4.30 to 5.00
19,"CCN1C(=O)C(CC(=O)NCc2ccncc2)Sc2ncccc21 (stereo not shown) [Example 42, 2-(1-ethyl-2-oxo-2,3-dihydro-1H-pyrido[2,3-b][1,4]thiazin-3-yl)-N-(pyridin-4-ylmethyl)acetamide]",< 4.00
20,"CCN1C(=O)C(CC(=O)NCc2ccccc2)Sc2ncccc21 (stereo not shown) [Example 43, N-benzyl-2-(1-ethyl-2-oxo-2,3-dihydro-1H-pyrido[2,3-b][1,4]thiazin-3-yl)acetamide]",< 4.00
21,"CCN1C(=O)C(CC(=O)NCC2CCCCC2)Sc2ncccc21 (stereo not shown) [Example 44, N-(cyclohexylmethyl)-2-(1-ethyl-2-oxo-2,3-dihydro-1H-pyrido[2,3-b][1,4]thiazin-3-yl)acetamide]",4.30 to 5.00
